Measured values as given in US11987588B2, “Modulators of the beta-3 adrenergic receptor useful for the treatment or prevention of heart failure and disorders related thereto” (Arena Pharmaceuticals, Inc., priority 2017, dated 2024).

Biological target: Beta-3 Adrenergic Receptor (Homo sapiens (Human), UniProt P13945)
Assay: Homogeneous Time-Resolved Fluorescence (HTRF) cAMP antagonist assay, IC50 determination
Type: cell-based
Conditions: CHO-K1 cells stably expressing recombinant receptor, isoproterenol at EC90
How it was run: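 Antagonist mode: isoproterenol at its predetermined EC90 added after compound to recombinant CHO-K1 cells in IBMX-containing PBS, 1 h, room temperature. Compounds tested as 5-fold, 10-point dilutions, top final typically 10 or 100 μM. HTRF signal converted to cAMP via standard curve, giving IC50.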

Chain of Beta-3 Adrenergic Receptor (P13945 whole entry, species assumed): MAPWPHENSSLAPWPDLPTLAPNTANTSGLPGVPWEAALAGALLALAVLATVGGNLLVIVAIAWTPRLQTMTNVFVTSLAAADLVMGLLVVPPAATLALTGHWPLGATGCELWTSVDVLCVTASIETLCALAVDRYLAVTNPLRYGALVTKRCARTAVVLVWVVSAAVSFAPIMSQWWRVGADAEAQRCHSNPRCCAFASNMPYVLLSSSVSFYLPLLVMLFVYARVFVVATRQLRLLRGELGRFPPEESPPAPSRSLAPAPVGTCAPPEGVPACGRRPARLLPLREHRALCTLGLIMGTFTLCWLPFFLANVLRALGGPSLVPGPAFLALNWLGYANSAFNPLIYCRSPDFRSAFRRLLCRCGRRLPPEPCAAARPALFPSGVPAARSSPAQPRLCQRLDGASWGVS

| Compound | IC50 |
| --- | --- |
| CNS(=O)(=O)c1cccc(OC[C@@H](O)CN[C@H]2COC3(CCN(S(=O)(=O)c4cnc5c(c4)N(C)CCCO5)CC3)C2)c1 [Compound 487, 3-((S)-2-hydroxy-3-((R)-8-(1-methyl-1,2,3,4-tetrahydropyrido[2,3-b][1,4]oxazepin-8-ylsulfonyl)-1-oxa-8-azaspiro[4.5]decan-3-ylamino)propoxy)-N-methylbenzenesulfonamide] | 0.0252 µM |
| CNS(=O)(=O)c1cccc(OC[C@@H](O)CNC2COC3(CCN(S(=O)(=O)c4cccc(-c5ccc(CC#N)cc5)c4)CC3)C2)c1 (stereo partly drawn) [Compound 117, 3-((2S)-3-(8-(4′-(cyanomethyl)biphenyl-3-ylsulfonyl)-1-oxa-8-azaspiro[4.5]decan-3-ylamino)-2-hydroxypropoxy)-N-methylbenzenesulfonamide] | 0.0145 µM |
| CNS(=O)(=O)c1cccc(OC[C@@H](O)CN[C@H]2COC3(CCN(S(=O)(=O)c4cnc5nc[nH]c5c4)CC3)C2)c1 [Compound 495, 3-((S)-3-((R)-8-(1H-imidazo[4,5-b]pyridin-6-ylsulfonyl)-1-oxa-8-azaspiro[4.5]decan-3-ylamino)-2-hydroxypropoxy)-N-methylbenzenesulfonamide] | 0.0506 µM |
| CNS(=O)(=O)c1cccc(OC[C@@H](O)CNC2COC3(CCN(S(=O)(=O)c4cccc(-c5cscc5C)c4)CC3)C2)c1 (stereo partly drawn) [Compound 109, 3-((2S)-2-hydroxy-3-(8-(3-(4-methylthiophen-3-yl)phenylsulfonyl)-1-oxa-8-azaspiro[4.5]decan-3-ylamino)propoxy)-N-methylbenzenesulfonamide] | 0.0137 µM |
| CNS(=O)(=O)c1cccc(OC[C@@H](O)CN[C@H]2COC3(CCN(c4ccncn4)CC3)C2)c1 [Compound 589, 3-((S)-2-hydroxy-3-((R)-8-(pyrimidin-4-yl)-1-oxa-8-azaspiro[4.5]decan-3-ylamino)propoxy)-N-methylbenzenesulfonamide] | 1.45 µM |
| CNS(=O)(=O)c1cccc(OC[C@@H](O)CNC2COC3(CCN(S(=O)(=O)c4cccc(F)c4)CC3)C2)c1 (stereo partly drawn) [Compound 28, 3-((2S)-3-(8-(3-fluorophenylsulfonyl)-1-oxa-8-azaspiro[4.5]decan-3-ylamino)-2-hydroxypropoxy)-N-methylbenzenesulfonamide] | 0.0162 µM |
| CNS(=O)(=O)c1cccc(OC[C@@H](O)CN[C@H]2COC3(CCN(S(=O)(=O)c4cc(C)cc5c(O)ccnc45)CC3)C2)c1 [Compound 547, 3-((S)-2-hydroxy-3-((R)-8-(4-hydroxy-6-methylquinolin-8-ylsulfonyl)-1-oxa-8-azaspiro[4.5]decan-3-ylamino)propoxy)-N-methylbenzenesulfonamide] | 0.179 µM |
| CNS(=O)(=O)c1cccc(OC[C@@H](O)CN[C@H]2COC3(CCN(S(=O)(=O)c4ccc[n+]([O-])c4)CC3)C2)c1 [Compound 496, 3-((R)-3-((S)-2-hydroxy-3-(3-(N-methylsulfamoyl)phenoxy)propylamino)-1-oxa-8-azaspiro[4.5]decan-8-ylsulfonyl)pyridine 1-oxide] | 0.541 µM |
| CNS(=O)(=O)c1cccc(OC[C@@H](O)CNC2COC3(CCN(S(=O)(=O)c4cccc(-c5sccc5C)c4)CC3)C2)c1 (stereo partly drawn) [Compound 116, 3-((2S)-2-hydroxy-3-(8-(3-(3-methylthiophen-2-yl)phenylsulfonyl)-1-oxa-8-azaspiro[4.5]decan-3-ylamino)propoxy)-N-methylbenzenesulfonamide] | 0.0235 µM |
| CNS(=O)(=O)c1cccc(OC[C@@H](O)CN[C@@H]2COC3(CCN(S(=O)(=O)c4cc(-c5ccc(CN)cc5)ccc4OC(F)(F)F)CC3)C2)c1 [Compound 415, 3-((S)-3-((S)-8-(4′-(aminomethyl)-4-(trifluoromethoxy)biphenyl-3-ylsulfonyl)-1-oxa-8-azaspiro[4.5]decan-3-ylamino)-2-hydroxypropoxy)-N-methylbenzenesulfonamide] | 0.0195 µM |
| CNS(=O)(=O)c1cccc(OC[C@@H](O)CN[C@H]2COC3(CCN(S(=O)(=O)c4cccc(-c5ccc(CNCCC(C)C)cc5)c4)CC3)C2)c1 [Compound 364, 3-((S)-2-hydroxy-3-((R)-8-(4′-((isopentylamino)methyl)biphenyl-3-ylsulfonyl)-1-oxa-8-azaspiro[4.5]decan-3-ylamino)propoxy)-N-methylbenzenesulfonamide] | 0.144 µM |
| CNS(=O)(=O)c1cccc(OC[C@@H](O)CNC2COC3(CCN(S(=O)(=O)c4cccc(-c5ccc(CNC(=O)CN)cc5)c4)CC3)C2)c1 (stereo partly drawn) [Compound 353, 2-amino-N-((3′-(3-((S)-2-hydroxy-3-(3-(N-methylsulfamoyl)phenoxy)propylamino)-1-oxa-8-azaspiro[4.5]decan-8-ylsulfonyl)biphenyl-4-yl)methyl)acetamide] | 0.058 µM |
| CNS(=O)(=O)c1cccc(OC[C@@H](O)CNC2COC3(CCN(S(=O)(=O)c4cccc(-c5cn(C)nc5C)c4)CC3)C2)c1 (stereo partly drawn) [Compound 68, 3-((2S)-3-(8-(3-(1,3-dimethyl-1H-pyrazol-4-yl)phenylsulfonyl)-1-oxa-8-azaspiro[4.5]decan-3-ylamino)-2-hydroxypropoxy)-N-methylbenzenesulfonamide] | 0.0369 µM |
| CNS(=O)(=O)c1cccc(OC[C@@H](O)CN[C@H]2COC3(CCN(S(=O)(=O)c4cnc5c(c4)N(C)CC4(CC4)O5)CC3)C2)c1 [Compound 474, 3-((S)-2-hydroxy-3-((R)-8-(1′-methyl-1′,2′-dihydrospiro[cyclopropane-1,3′-pyrido[2,3-b][1,4]oxazine]-7′-ylsulfonyl)-1-oxa-8-azaspiro[4.5]decan-3-ylamino)propoxy)-N-methylbenzenesulfonamide] | 0.0442 µM |
| CNS(=O)(=O)c1cccc(OC[C@@H](O)CNC2COC3(CCN(S(=O)(=O)c4ccc(Oc5ccccc5)nc4)CC3)C2)c1 (stereo partly drawn) [Compound 130, 3-((2S)-2-hydroxy-3-(8-(6-phenoxypyridin-3-ylsulfonyl)-1-oxa-8-azaspiro[4.5]decan-3-ylamino)propoxy)-N-methylbenzenesulfonamide] | 0.00832 µM |
| NS(=O)(=O)c1cccc(OC[C@@H](O)CN[C@H]2COC3(CCN(S(=O)(=O)c4cccc(Cl)c4)CC3)C2)c1 [Compound 591, 3-((S)-3-((R)-8-(3-chlorophenylsulfonyl)-1-oxa-8-azaspiro[4.5]decan-3-ylamino)-2-hydroxypropoxy)benzenesulfonamide] | 0.149 µM |
| Cc1cc(S(=O)(=O)N2CCC3(CC2)CC(NC[C@H](O)COc2cccc(S(=O)(=O)N(C)C)c2)CO3)ccc1Br (stereo partly drawn) [Compound 249, 3-((2S)-3-(8-(4-bromo-3-methylphenylsulfonyl)-1-oxa-8-azaspiro[4.5]decan-3-ylamino)-2-hydroxypropoxy)-N,N-dimethylbenzenesulfonamide] | 0.0295 µM |
| CNC(=O)[C@@H](NS(=O)(=O)c1cccc(OC[C@@H](O)CNC2COC3(CCN(S(=O)(=O)c4ccc5ccccc5c4)CC3)C2)c1)[C@@H](C)O (stereo partly drawn) [Compound 92, (2S,3R)-3-hydroxy-2-(3-((2S)-2-hydroxy-3-(8-(naphthalen-2-ylsulfonyl)-1-oxa-8-azaspiro[4.5]decan-3-ylamino)propoxy)phenylsulfonamido)-N-methylbutanamide] | 1.99 µM |
| CNS(=O)(=O)c1cccc(OC[C@@H](O)CNC2COC3(CCN(S(=O)(=O)c4cccc(-c5ccnc(C)c5)c4)CC3)C2)c1 (stereo partly drawn) [Compound 107, 3-((2S)-2-hydroxy-3-(8-(3-(2-methylpyridin-4-yl)phenylsulfonyl)-1-oxa-8-azaspiro[4.5]decan-3-ylamino)propoxy)-N-methylbenzenesulfonamide] | 0.0109 µM |
| CNS(=O)(=O)c1cccc(OC[C@@H](O)CN[C@H]2COC3(CCN(S(=O)(=O)c4ccc5c(c4)CCCO5)CC3)C2)c1 [Compound 184, 3-((S)-3-((R)-8-(chroman-6-ylsulfonyl)-1-oxa-8-azaspiro[4.5]decan-3-ylamino)-2-hydroxypropoxy)-N-methylbenzenesulfonamide] | 0.0119 µM |
| CNS(=O)(=O)c1cccc(OC[C@@H](O)CNC2COC3(CCN(S(=O)(=O)c4cnc5c(c4)N(C)CCO5)CC3)C2)c1 (stereo partly drawn) [Compound 399, 3-((2S)-2-hydroxy-3-(8-(1-methyl-2,3-dihydro-1H-pyrido[2,3-b][1,4]oxazin-7-ylsulfonyl)-1-oxa-8-azaspiro[4.5]decan-3-ylamino)propoxy)-N-methylbenzenesulfonamide] | 0.0202 µM |
| CNS(=O)(=O)c1cccc(OC[C@@H](O)CN[C@H]2COC3(CCN(S(=O)(=O)c4ccc5c(c4)NC(=O)CO5)CC3)C2)c1 [Compound 279, 3-((S)-2-hydroxy-3-((R)-8-(3-oxo-3,4-dihydro-2H-benzo[b][1,4]oxazin-6-ylsulfonyl)-1-oxa-8-azaspiro[4.5]decan-3-ylamino)propoxy)-N-methylbenzenesulfonamide] | 0.0316 µM |
| CNS(=O)(=O)c1cccc(OC[C@@H](O)CNC2COC3(CCN(S(=O)(=O)c4ccc(F)cc4)CC3)C2)c1 (stereo partly drawn) [Compound 26, 3-((2S)-3-(8-(4-fluorophenylsulfonyl)-1-oxa-8-azaspiro[4.5]decan-3-ylamino)-2-hydroxypropoxy)-N-methylbenzenesulfonamide] | 0.0341 µM |
| CNS(=O)(=O)c1cccc(OC[C@@H](O)CN[C@H]2COC3(CCN(S(=O)(=O)c4cnc5c(c4)N(CCOCc4ccccc4)CCO5)CC3)C2)c1 [Compound 462, 3-((S)-3-((R)-8-(1-(2-(benzyloxy)ethyl)-2,3-dihydro-1H-pyrido[2,3-b][1,4]oxazin-7-ylsulfonyl)-1-oxa-8-azaspiro[4.5]decan-3-ylamino)-2-hydroxypropoxy)-N-methylbenzenesulfonamide] | 0.107 µM |
| O=S(=O)(NCC(F)F)c1cccc(OC[C@@H](O)CNC2COC3(CCN(S(=O)(=O)c4ccc5ccccc5c4)CC3)C2)c1 (stereo partly drawn) [Compound 9, N-(2,2-difluoroethyl)-3-((2S)-2-hydroxy-3-(8-(naphthalen-2-ylsulfonyl)-1-oxa-8-azaspiro[4.5]decan-3-ylamino)propoxy)benzenesulfonamide] | 0.107 µM |
| COCCNS(=O)(=O)c1cccc(OC[C@@H](O)CNC2COC3(CCN(S(=O)(=O)c4ccc5ccccc5c4)CC3)C2)c1 (stereo partly drawn) [Compound 13, 3-((2S)-2-hydroxy-3-(8-(naphthalen-2-ylsulfonyl)-1-oxa-8-azaspiro[4.5]decan-3-ylamino)propoxy)-N-(2-methoxyethyl)benzenesulfonamide] | 0.0287 µM |
